From ChEMBL document CHEMBL1153646, “Peptidomimetic inhibitors of p21ras farnesyltransferase: Hydrophobic functionalization leads to disruption of p21ras membrane association in whole cells” (Bioorg Med Chem Lett, 1994) come the findings set out here.

Usually IC50 stands for the concentration that gives 50% inhibition.

Calls of active or inactive are those of the source. The calls are words filed in the database; no cut-off is given here.

Experiment [1] concerns the target Protein farnesyltransferase (Homo sapiens, UniProt P49354+P49356). Description: In vitro inhibition of [3H]FPP incorporation into recombinant P21ras of NIH3T3 cells by farnesyl transferase. The class given is cell-based.
Experiment [2] deals with Protein farnesyltransferase (Mus musculus) (UniProt Q61239+Q8K2I1). Put plainly: In vivo inhibition of p21ras-farnesyl transferase in NIH3T3 cells (No inhibition). The class given is functional.

As to `COC(=O)[C@H](CCSC)NC(=O)c1cccc(CNC(=O)[C@@H](N)CS)c1`, in experiment [1], the half-inhibitory concentration (IC50) is 18 µM.

`COC(=O)[C@H](CCSC)NC(=O)c1cccc(CNC(=O)[C@H](CS)NC(C)=O)c1`: the inhibition result in experiment [2] was “inactive”. In experiment [1], the concentration for half-maximal inhibition (IC50) is 100 µM.

Turning to `CC[C@H](C)[C@H](NC(=O)[C@@H](NC(=O)[C@@H](N)CS)C(C)C)C(=O)N[C@@H](CCSC)C(=O)O`, in experiment [1], the half-maximal inhibitory concentration (IC50) was found to be 0.34 µM.

Consider `CC[C@@H](C)[C@H](NC(=O)[C@@H](NC(=O)[C@H](CSC(=O)OCc1ccccc1)NC(=O)OCc1ccccc1)C(C)C)C(=O)N[C@@H](CCSC)C(=O)OC`, for which the inhibition result in experiment [2] is “inactive”. In addition, the IC50 in experiment [1] is 90 µM.

`COC(=O)[C@H](CCSC)NC(=O)c1cccc(CNC(=O)[C@H](CSC(=O)OCc2ccccc2)NC(=O)OCc2ccccc2)c1`: in experiment [1], the 50% inhibitory concentration (IC50) turned out to be 100 µM.

With `CSCC[C@H](NC(=O)c1cccc(CNC(=O)[C@@H](N)CS)c1)C(=O)O`, the inhibition entry in experiment [2] was “inactive”. Also, the IC50 in experiment [1] stood at 0.38 µM.

Turning to `CSCC[C@H](NC(=O)c1cccc(CNC(=O)[C@H](CS)NC(=O)OCc2ccccc2)c1)C(=O)O`, the inhibition entry in experiment [2] is “inactive”. Moreover, in experiment [1], the half-maximal inhibitory concentration (IC50) amounted to 14 µM.
